Measurements as given in paper PMC8175350, “Drug repurposing screens identify chemical entities for the development of COVID-19 interventions” (Nature Communications, 2021).
Several values for one entry are separate records, joined by “and”; a condition that tells them apart may be missing. Identical values can stand only once. Like-named read-outs stand apart in the source and are kept apart here.

Assays:
SARS-CoV-2 [1] = assay: microbe, parasite or virus in culture; type: cell-based; conditions: for %infected: Calu-3, replicate wells n=1-3
Calu-3 cells [2] = assay: Uninfected Calu-3 48 h Cell-Titer Glo cytotoxicity counter screen; conditions: Calu-3, replicate wells n=1-3
[3] = as above; conditions: human, uninfected Calu-3 cells, cytotoxicity CC50, uninfected Calu-3, geomean
Calu-3 cells [4] = assay: cells; conditions: Homo sapiens, Calu-3, read-out: cell count EC50, Calu-3, geomean; ^↑ = increasing dose-response curve
SARS-CoV-2 [5] = assay: microbe, parasite or virus in culture; type: cell-based; conditions: for %infected: HeLa-ACE2, replicate wells n=1-3
HeLa-ACE2 cells [6] = assay: Uninfected HeLa-ACE2 24 h live/dead cytotoxicity counter screen; type: cell-based, human; conditions: HeLa-ACE2, replicate wells n=1-3
[7] = as above; type: cell-based, human; conditions: human, uninfected HeLa-ACE2 cells, geomean; read-out: uninfected HeLa-ACE2 cytotoxicity CC50
SARS-CoV-2 [8] = assay: microbe, parasite or virus in culture; type: cell-based; conditions: for TOA: HeLa-ACE2, replicate wells n=1-3
HeLa-ACE2 cells [9] = assay: cells; conditions: Homo sapiens, HeLa-ACE2, read-out: cell count in infection assay EC50, HeLa-ACE2, geomean; ^↑ = increasing dose-response curve

## COc1ccc(C[C@H](N)C(=O)N[C@H]2[C@@H](O)[C@H](n3cnc4c(N(C)C)ncnc43)O[C@@H]2CO)cc1 [Puromycin]
SARS-CoV-2 [1]; concentration log[M] -5
  %infected: -95.8583% and -98.0315% and -98.6862% and -95.9501% and -76.0417% and -82.6326% and -93.9332% and -99.6609% and -93.5404%
SARS-CoV-2 [1]; concentration log[M] -5.47712
  %infected: -67.9332% and -73.9862% and -77.2001% and -69.7882% and -47.5028% and -51.8982% and -50.0755% and -50.9352% and -58.0559%
SARS-CoV-2 [1]; concentration log[M] -5.95424
  %infected: -28.7555% and -23.4276% and -35.8088% and -33.2702% and 12.7351% and -26.1199% and 1.582% and -3.868% and -16.5101%
SARS-CoV-2 [1]; concentration log[M] -6.43136
  %infected: -8.682% and 16.1023% and -10.697% and 2.701% and -30.2762% and -2.034% and 9.733% and 3.624% and 18.0604%
SARS-CoV-2 [1]; concentration log[M] -6.90849
  %infected: 14.8237% and -16.8235% and 10.3561% and -2.261% and -10.1676% and -3.437% and 1.061% and 10.2779% and -14.1014%
SARS-CoV-2 [1]; concentration log[M] -7.38561
  %infected: 9.109% and 11.8626% and -0.1312% and 10.7467% and -22.0858% and 7.736% and -8.662% and -8.078% and 8.576%
SARS-CoV-2 [1]; concentration log[M] -7.86273
  %infected: -4.7462% and 13.3419% and -1.416% and -3.878% and 20.4436% and -1.961% and -6.536% and -8.873% and -15.4821%
SARS-CoV-2 [1]; concentration log[M] -8.33985
  %infected: 2.5816% and -20.6025% and -3.165% and -4.091% and -15.6383% and 9.983% and 19.7898% and 7.961% and 5.366%
SARS-CoV-2 [1]; Severe acute respiratory syndrome coronavirus 2, Calu-3, Calu-3, geomean, read-out: SARS-CoV-2 EC50
  EC50: 2740 nM
Calu-3 cells [2]; concentration log[M] -4.52288
  cytotox: -100.931 and -99.9022 and -95.4488 and -97.7263 and -96.8224 and -101.443 and -97.7214 and -100.308 and -97.0229
Calu-3 cells [2]; concentration log[M] -5
  cytotox: -80.4262 and -81.4732 and -68.7172 and -83.9318 and -82.4069 and -88.2536 and -90.1262 and -91.0255 and -86.7764
Calu-3 cells [2]; concentration log[M] -5.47712
  cytotox: -21.5211 and -21.4754 and -12.3695 and -29.1257 and -36.4975 and -41.3268 and -49.2553 and -54.1555 and -56.8603
Calu-3 cells [2]; concentration log[M] -5.95424
  cytotox: -2.83 and -11.281 and -7.043 and -17.8087 and -13.674 and -31.1214 and -23.8075 and -33.8515 and -29.7354
Calu-3 cells [2]; concentration log[M] -6.43136
  cytotox: 2.078 and 1.682 and 8.441 and -6.555 and 0.06053 and -11.5086 and -12.2093 and -0.8504 and -4.056
Calu-3 cells [2]; concentration log[M] -6.90848
  cytotox: 3.604 and 1.518 and 9.871 and 2.227 and 16.0597 and -0.8904 and 5.168 and 1.586 and 4.2472
Calu-3 cells [2]; concentration log[M] -7.38561
  cytotox: 8.858 and -2.4064 and 3.577 and 15.479 and 1.71 and -0.4894 and 11.4275 and 7.753 and 11.1753
Calu-3 cells [2]; concentration log[M] -7.86273
  cytotox: 1.729 and -14.6095 and -2.223 and 9.032 and 7.858 and -12.5661 and -1.561 and 2.663 and 8.58
[3]
  CC50 at 48 h: 3950 nM
Calu-3 cells [4]
  EC50: > 10000 nM
SARS-CoV-2 [5]; HeLa-ACE2, individual values of 9 independent experiments, read-out: EC50 (µM), Fig 1c
  EC50: 0.435 µM and 0.38 µM and 0.598 µM and 0.621 µM and 0.45 µM and 0.531 µM and 0.521 µM and 0.566 µM and 0.31 µM
SARS-CoV-2 [5]; concentration log[M] -5.017
  %infected: -100.174% and -66.1982% and -101.885% and -101.158% and -100.229% and -100.414% and -100.159% and -100.524% and -100%
SARS-CoV-2 [5]; concentration log[M] -5.4942
  %infected: -100.174% and -93.9019% and -89.6683% and -95.454% and -98.8405% and -100.414% and -93.5473% and -100.524% and -98.8065%
SARS-CoV-2 [5]; concentration log[M] -5.9713
  %infected: -100.174% and -98.3678% and -99.6425% and -99.9897% and -99.6057% and -100.414% and -99.8612% and -100.183% and -99.7407%
SARS-CoV-2 [5]; concentration log[M] -6.4484
  %infected: 1.313%
SARS-CoV-2 [5]; Severe acute respiratory syndrome coronavirus 2, HeLa-ACE2, HeLa-ACE2, MOI 0.09, read-out: EC50
  EC50: 0.52 µM
SARS-CoV-2 [5]; Severe acute respiratory syndrome coronavirus 2, HeLa-ACE2, HeLa-ACE2, MOI 0.26, read-out: EC50
  EC50: 0.433 µM
SARS-CoV-2 [5]; Severe acute respiratory syndrome coronavirus 2, HeLa-ACE2, HeLa-ACE2, MOI 0.51, read-out: EC50
  EC50: 0.43 µM
SARS-CoV-2 [5]; Severe acute respiratory syndrome coronavirus 2, HeLa-ACE2, HeLa-ACE2, MOI 1.1, read-out: EC50
  EC50: 0.431 µM
SARS-CoV-2 [5]; Severe acute respiratory syndrome coronavirus 2, HeLa-ACE2, HeLa-ACE2, MOI 2.2, read-out: EC50
  EC50: 0.455 µM
SARS-CoV-2 [5]; Severe acute respiratory syndrome coronavirus 2, HeLa-ACE2, HeLa-ACE2, geomean, read-out: SARS-CoV-2 EC50
  EC50: 0.48 µM
HeLa-ACE2 cells [6]; concentration log[M] -4.39794
  cytotox: -100 (5×) and -99.957 and -100.055 and -99.8917 and -99.5551
HeLa-ACE2 cells [6]; concentration log[M] -4.87506
  cytotox: -100 (5×) and -100.043 and -100.055 and -99.8917 and -99.8888
HeLa-ACE2 cells [6]; concentration log[M] -5.35218
  cytotox: -99.2405 and -100.043 and -100 and -99.7082 and -99.8513 and -99.7143 and -99.834 and -99.8917 and -99.8888
HeLa-ACE2 cells [6]; concentration log[M] -5.8293
  cytotox: -94.5992 and -94.54 and -94.2197 and -97.5201 and -91.5242 and -94.1429 and -95.9602 and -98.5916 and -99.2214
HeLa-ACE2 cells [6]; concentration log[M] -6.30643
  cytotox: -16.5401 and -18.2717 and -10.2395 and -53.9023 and -53.9033 and -44.2857 and -37.078 and -52.3294 and -37.5973
HeLa-ACE2 cells [6]; concentration log[M] -6.78355
  cytotox: -2.194 and 3.482 and 5.615 and -5.9081 and 6.4684 and -6.286 and -2.656 and 2.0585 and 1.78
HeLa-ACE2 cells [6]; concentration log[M] -7.26067
  cytotox: 9.198 and 8.212 and 13.6251 and -16.9949 and 6.9145 and -11.5714 and 1.66 and 4.117 and 13.2369
HeLa-ACE2 cells [6]; concentration log[M] -7.73779
  cytotox: 5.148 and 2.193 and 2.395 and 7.367 and 9.294 and 9.714 and 11.1787 and -1.625 and 6.897
[7]
  CC50 at 24 h: 658 nM
SARS-CoV-2 [8]; concentration log[M] -5.017
  TOA: -102.365 and -102.878 and -104.791 and -98.49 and -99.8269 and -99.8889 and -98.5459 and -89.5564 and -100
SARS-CoV-2 [8]; concentration log[M] -5.4942
  TOA: -102.562 and -103.725 and -107.111 and -95.8769 and -99.8786 and -99.7495 and -98.3444 and -97.4941 and -99.8965
SARS-CoV-2 [8]; concentration log[M] -5.9713
  TOA: -102.27 and -103.614 and -103.314 and -96.7138 and -100 (3×) and -98.3433 and -92.9164
SARS-CoV-2 [8]; concentration log[M] -6.4484
  TOA: -6.41 and -22.1743 and -1.526 and -76.305 and -86.1829 and -83.03 and -58.994 and -58.9112 and -89.0793
SARS-CoV-2 [8]; concentration log[M] -6.9255
  TOA: -12.6152 and -14.5357 and 3.304 and -16.4877 and -30.7409 and -13.5207 and -8.881 and -3.253 and -32.0225
SARS-CoV-2 [8]; concentration log[M] -7.4026
  TOA: -1.409 and 2.055 and 2.822 and -9.903 and -4.893 and -5.119 and -5.9163 and -2.505 and -5.006
SARS-CoV-2 [8]; concentration log[M] -7.8798
  TOA: -0.7005 and -1.372 and 4.453 and -4.998 and -0.516 and 2.028 and -14.3841 and -2.585 and -13.6565
SARS-CoV-2 [8]; Severe acute respiratory syndrome coronavirus 2, HeLa-ACE2, fixed 10 hpi, geomean, read-out: CoV-2 TOA EC50
  EC50: 316 nM
HeLa-ACE2 cells [9]
  EC50: 1550 nM
